Patent US20050261260A1, “Combination of a CDK inhibitor and mitoxantrone” (Cyclacel Limited, priority 2002, published 2005)
In brackets after ≈: the same amount, converted by molar mass. Several values for one entry are separate records, joined by “and”; a condition that tells them apart may be missing. Identical values can stand only once. Like-named read-outs stand apart in the source and are kept apart here.

Columns and labels:
[1] = test system: prostate tumor cells (PC-3)
[2] = test system: prostate tumor cells (PC-3); assay: cells; details: Homo sapiens, 24 h, read-out: IC50 (concentration listed as 100 % IC50), PC-3
[3] = concurrent 24 h exposure, % IC50 0/100: roscovitine 0, mitox. 12.50 ng/ml
[4] = mitoxantrone 24 h then roscovitine 24 h, % IC50 0/100: roscovitine 0, mitox. 15.00 ng/ml
[5] = roscovitine 24 h then mitoxantrone 24 h, % IC50 0/100: roscovitine 0, mitox. 10.00 ng/ml
[6] = mitoxantrone 24 h then roscovitine 24 h, % IC50 100/0: roscovitine 30.00 ug/ml, mitox. 0

Row | Structure (SMILES) | % Abs [1, 3] | % Response [1, 3] | Mean (absorbance) [1, 3] | Well 1-3 (absorbance) [1, 3] | % Abs [1, 4] | % Response [1, 4] | Mean (absorbance) [1, 4] | Well 1-3 (absorbance) [1, 4] | % Abs [1, 5] | % Response [1, 5] | Mean (absorbance) [1, 5] | Well 1-3 (absorbance) [1, 5] | IC50 ([2]; Table 3, roscovitine 24 h then mitoxantrone 24 h) | IC50 ([2]; Table 5, mitoxantrone 24 h then roscovitine 24 h) | IC50 ([2]; Table 7, concurrent 24 h exposure) | % Abs [1, 6] | % Response [1, 6] | Mean (absorbance) [1, 6] | Well 1-3 (absorbance) [1, 6]
1 | O=C1c2c(O)ccc(O)c2C(=O)c2c(NCCNCCO)ccc(NCCNCCO)c21 [Mitoxantrone, 1,4-dihydroxy-5,8-bis[{2-[(2-hydroxyethyl)amino]ethyl}amino]-9,10-anthracendione] | 51.8% and 54.7% | 45.3% | 0.418 | 0.415 and 0.424 and 0.414 | 47.0% | 53.0% | 0.367 | 0.373 and 0.371 and 0.358 | 62.7% | 37.3% | 0.501 | 0.532 and 0.487 and 0.483 | 0.01 µg/mL (≈ 0.0225 µM) | 0.015 µg/mL (≈ 0.0337 µM) | 0.0125 µg/mL (≈ 0.0281 µM) |  |  |  | 
2 | CC[C@H](CO)Nc1nc(NCc2ccccc2)c2ncn(C(C)C)c2n1 [Roscovitine, 6-benzylamino-2-[(R)-1-ethyl-2-hydroxyethylamino]-9-isopropylpurine] |  |  |  |  |  |  |  |  |  |  |  |  |  |  |  | 21.9% | 78.1% | 0.171 | 0.165 and 0.162 and 0.186
